Source: patent US20200206350A1, “COMPOUNDS FOR REDUCING THE VISCOSITY OF BIOLOGICAL FORMULATIONS” (Merck Sharp & Dohme Corp., priority 2017, published 2020)
Where a name gives a salt, the structure may show the parent alone. Marks after values point to notes of the source that are not given here.

Tests used:
pembrolizumab = experiment: Viscosity of pembrolizumab test formulations (mVROC viscometer); type: physicochemical; conditions: 10 mM histidine buffer, 200 mg/mL pembrolizumab, 0.2 M excipient, pH 5.5
Protocol: Pembrolizumab formulations comprised the following: 10 mM histidine buffer, pembrolizumab at a concentration of 200 mg/mL, and the test excipient (pegylated excipient of the invention, as described herein) at a concentration of 200 mM, pH adjusted to pH 5.5. Pembrolizumab formulations without excipients consisted of 200 mg/mL pembrolizumab in 10 mM histidine buffer at pH 5.5. The 10 mM histidine buffer used with pembrolizumab formulations consisted of consists of 10 mM L-histidine in sterile water, pH adjusted to 5.5.
(§1) All viscosity measurements were conducted using the mVROC (Viscometer/Rheometer-On-A-Chip, RheoSense, Inc., San Ramon, Calif.). The test formulations were placed into a 250 μl Hamilton air-tight syringe, which was then placed inside the syringe jacket of the mVROC. The instrument injected formulation into the chip for viscosity measurement at an appropriate flow rate. Most measurements were done in duplicates.

Antibody B = experiment: Viscosity of Antibody B test formulations (mVROC viscometer); type: physicochemical; conditions: 10 mM histidine buffer, 177 mg/mL Antibody B, 0.2 M excipient, pH 6.0
Protocol: Antibody B formulations comprised the following: 10 mM histidine buffer, Antibody B at a concentration of 177 mg/mL and the test excipient (pegylated excipient of the invention, as described herein) at a concentration of 200 mM, pH adjusted to pH 6.0. The Antibody B formulation without excipients consisted of 177 mg/mL Antibody B in 10 mM histidine buffer at pH 6.0. The 10 mM histidine buffer used with Antibody B consisted of 10 mM L-histidine in sterile water, pH adjusted to 6.0.
as §1

Compound	Viscosity 1 (pembrolizumab)	Viscosity 2 (pembrolizumab)	Viscosity Average (pembrolizumab)	Viscosity 1 (Antibody B)	Viscosity 2 (Antibody B)	Viscosity Average (Antibody B)
COCCOCCN[C@@H](Cc1c[nH]cn1)C(=O)O [Example 12, (S)-3-(1H-imidazol-4-yl)-2-((2-(2-methoxyethoxy)ethyl)amino)propanoic acid]	22.19 mPa-s	22.33 mPa-s	22.26 mPa-s	–	–	–
COCCOCC(=O)N[C@@H](CCCCN)C(=O)O [Example 10, (S)-6-amino-2-(2-(2-methoxyethoxy)acetamido)hexanoic acid]	26.39 mPa-s	26.35 mPa-s	26.37 mPa-s	–	–	–
COCCOCCOCCOCCN[C@@H](Cc1c[nH]cn1)C(=O)O [Example 18, (2,5,8,11-tetraoxatridecan-13-yl)-L-histidine]	22.82 mPa-s	22.47 mPa-s	22.65 mPa-s	–	–	–
COCCOCCOCC(=O)N[C@@H](Cc1c[nH]cn1)C(=O)O [Example 1, (S)-12-((1H-imidazol-4-yl)methyl)-10-oxo-2,5,8-trioxa-11-azatridecan-13-oic acid]	23.12 mPa-s	23.27 mPa-s	23.20 mPa-s	–	–	–
COCCOCCN[C@@H](CCCNC(=N)N)C(=O)O [Example 14, (S)-5-guanidino-2-((2-(2-methoxyethoxy)ethyl)amino)pentanoic acid]	24.59 mPa-s	24.76 mPa-s	24.68 mPa-s	–	–	–
N=C(N)NCCC[C@@H](C(=O)O)N(CCOCCO)CCOCCO [Example 20, (S)-2-(bis(2-(2-hydroxyethoxy)ethyl)amino)-5-guanidinopentanoic acid]	25.28 mPa-s	25.42 mPa-s	25.35 mPa-s	–	–	–
COCCOCC(=O)N[C@@H](Cc1ccccc1)C(=O)O [Example 22]	17.77 mPa-s	17.63 mPa-s	17.70 mPa-s	–	–	–
N=C(N)NCCC[C@H](N)C(=O)O [Arginine, reference compound]	30.25 mPa-s	30.55 mPa-s	30.40 mPa-s	–	–	–
COCCOCCOCC(=O)N[C@@H](CCCNC(=N)N)C(=O)O [Example 2, (S)-12-(3-guanidinopropyl)-10-oxo-2,5,8-trioxa-11-azatridecan-13-oic acid]	22.05 mPa-s	22.24 mPa-s	22.15 mPa-s	–	–	–
COCCOCC(=O)N[C@@H](Cc1ccc(O)cc1)C(=O)O [Example 23, (2-(2-methoxyethoxy)acetyl)-L-tyrosine]	20.15 mPa-s	20.09 mPa-s	20.12 mPa-s	–	–	–
COCCOCCOCCOCC(=O)N[C@@H](CCCNC(=N)N)C(=O)O [Example 17, (2,5,8,11-tetraoxatridecan-13-oyl)-L-arginine]	23.09 mPa-s	22.82 mPa-s	22.96 mPa-s	–	–	–
COCCOCC(=O)N[C@@H](Cc1c[nH]cn1)C(=O)O [Example 13, (2-(2-methoxyethoxy)acetyl)-L-histidine]	20.05 mPa-s	20.09 mPa-s	20.07 mPa-s	–	–	–
COCCOCCOCCOCC(=O)N[C@@H](Cc1c[nH]cn1)C(=O)O [Example 16]	23.33 mPa-s	23.54 mPa-s	23.44 mPa-s	–	–	–
COCCOCCN(CCOCCOC)[C@@H](CCCNC(=N)N)C(=O)O [Example 5, (S)-2-(bis(2-(2-methoxyethoxy)ethyl)amino)-5-guanidinopentanoic acid]	18.02* *Ave- rage of 4 values mPa-s	18.37* *Ave- rage of 4 values mPa-s	18.19** **Ave- rage of 8 values mPa-s	–	–	–
COCCOCCOCCN[C@@H](Cc1c[nH]cn1)C(=O)O [Example 19, (2-(2-(2-methoxyethoxy)ethoxy)ethyl)-L-histidine]	26.58 mPa-s	26.83 mPa-s	26.71 mPa-s	–	–	–
COCCOCCN(C(=O)COCCOC)[C@@H](CCCNC(=N)N)C(=O)O [Example 3, (S)-5-guanidino-2-(2-(2-methoxyethoxy)-N-(2-(2-methoxyethoxy)ethyl)acetamido)pentanoic acid]	21.12 mPa-s	21.18 mPa-s	21.15 mPa-s	–	–	–
COCCOCCN(CCOCCOC)[C@@H](Cc1c[nH]cn1)C(=O)O [Example 9, (S)-2-(bis(2-(2-methoxyethoxy)ethyl)amino)-3-(1H-imidazol-4-yl)propanoic acid dihydrochloride]	–	–	–	26.55 mPa-s	26.67 mPa-s	26.61 mPa-s
COCCOCCN(CCOCCOC)[C@@H](CCCCN)C(=O)O [Example 11, (S)-6-amino-2-(bis(2-(2-methoxyethoxy)ethyl)amino)hexanoic acid]	21.36 mPa-s	21.50 mPa-s	21.43 mPa-s	–	–	–
O=C(O)[C@H](Cc1c[nH]cn1)N(CCOCCO)CCOCCO [Example 21, (S)-2-(bis(2-(2-hydroxyethoxy)ethyl)amino)-3-(1H-imidazol-4-yl)propanoic acid]	23.19 mPa-s	23.16 mPa-s	23.18 mPa-s	–	–	–
COCCOCCN(CCOCCOC)[C@@H](CCCNC(=N)N)C(=O)O [Example 8, (S)-2-(bis(2-(2-methoxyethoxy)ethyl)amino)-5-guanidinopentanoic acid dihydrochloride]	–	–	–	22.25 mPa-s	22.19 mPa-s	22.22 mPa-s
COCCOCCN(C(=O)COCCOC)[C@@H](Cc1c[nH]cn1)C(=O)O [Example 4, (S)-3-(1H-imidazol-4-yl)-2-(2-(2-methoxyethoxy)-N-(2-(2-methoxyethoxy)ethyl)acetamido)propanoic acid]	19.64 mPa-s	19.28 mPa-s	19.46 mPa-s	–	–	–
COCCOCC(=O)N[C@@H](CCCNC(=N)N)C(=O)O [Example 15, (2-(2-methoxyethoxy)acetyl)-L-arginine dihydrochloride]	18.67 mPa-s	–	18.67 mPa-s	–	–	–
N[C@@H](Cc1c[nH]cn1)C(=O)O [Histidine, reference compound]	35.79 mPa-s	35.32 mPa-s	35.56 mPa-s	–	–	–
COCCOCCN(CCOCCOC)[C@@H](Cc1c[nH]cn1)C(=O)O [Example 6, (S)-2-(bis(2-(2-methoxyethoxy)ethyl)amino)-3-(1H-imidazol-4-yl)propanoic acid]	17.57* *Ave- rage of 3 values mPa-s	18.10* *Ave- rage of 3 values mPa-s	17.83** **Ave- rage of 6 values mPa-s	–	–	–
